From patent publication US20140113945A1, “Novel Pyrrole Inhibitors of S-Nitrosoglutathione Reductase as Therapeutic Agents for Liver Toxicity” (priority 2011, published 2014)
Where two headings read alike, the source gives them in different places. Marks after values point to notes of the source that are not given here.

Test system: acetaminophen (APAP) induced liver toxicity
Details: for mean ALT / mean AST / increase in ALT compared to control saline group / increase in AST compared to control saline group / reduction in ALT compared to APAP only / reduction in AST compared to APAP only: mice; for mean ALT / mean AST: substance IV + APAP 300 mg/kg PO; for increase in ALT compared to control saline group / increase in AST compared to control saline group / reduction in ALT compared to APAP only / reduction in AST compared to APAP only: substance IV after APAP 300 mg/kg PO, 24-hour; for Alkaline phosphatase (ALK) levels: mouse, in vivo

| SMILES | mean ALT (24-hours post-APAP) | mean AST (24-hours post-APAP) | mean ALT (72-hours post-APAP) | mean AST (72-hours post-APAP) | mean ALT (6 hours post-APAP) | mean AST (6 hours post-APAP) | increase in ALT compared to control saline group | increase in AST compared to control saline group | reduction in ALT compared to APAP only | reduction in AST compared to APAP only | Alkaline phosphatase (ALK) levels |
| --- | --- | --- | --- | --- | --- | --- | --- | --- | --- | --- | --- |
| Cc1cc(C(N)=O)ccc1-n1c(CCC(=O)O)ccc1-c1ccc(Cl)cc1O [Compound 41] | 4749.4 | 3783.6 | 97.6 | 492.6 | 3608.0 | 3741.2 | 43 fold | 29 fold | 23% | 34% | did not significantly differ from normal controls |
| N[C@@H](CCC(=O)N[C@@H](CSN=O)C(=O)NCC(=O)O)C(=O)O [GSNO, S-nitrosoglutathione] | 1454.3 | 518.0* | 31.8* | 55.0* | 571.8* | 484.5* | ~5 fold | ~4 fold | 76% | 91% | did not significantly differ from normal controls |
